Source: the supplement of paper PMC10733146

Key:
Assay in all cases: viability relative to DMSO control (fraction); higher = less drug effect (more viable cells)
Conditions in all cases: 48 h
[1] = compound: CC#CC(=O)N1CC[C@@H](n2c(=O)n(-c3ccc(Oc4ccccc4)cc3)c3c(N)ncnc32)C1 [ONO-4059]
How it was run: (§1)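 Viability is given as CellTiter-Glo luminescence relative to the median of 16 inner DMSO wells. Fresh or cryopreserved primary mononuclear tumour cells from blood, bone marrow (both Ficoll-isolated) or processed lymph node were plated at 4 × 10^4 cells per well in 384-well plates against five pre-plated compound concentrations, one well each. Incubation lasted 48 h at 37 °C and 5% CO2 in RPMI-1640 with penicillin/streptomycin, L-glutamine and human serum.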

[2] = compound: CN(C)C(=O)c1cc2cnc(Nc3ccc(N4CCNCC4)cn3)nc2n1C1CCCC1 [Ribociclib]
How it was run: as §1

[3] = compound: Cc1cc(Nc2cc(N3CCN(C)CC3)nc(Sc3ccc(NC(=O)C4CC4)cc3)n2)n[nH]1 [Tozasertib]
How it was run: as §1

[4] = compound: Cc1ccc(NC(=O)c2ccc(CN3CCN(C)CC3)cc2)cc1Nc1nccc(-c2cccnc2)n1 [Imatinib]
How it was run: as §1

[5] = compound: C#CCC(Cc1cnc2nc(N)nc(N)c2n1)c1ccc(C(=O)N[C@@H](CCC(=O)O)C(=O)O)cc1 [Pralatrexate]
How it was run: as §1

[6] = compound: CC(C)(C)OC(=O)Nc1ccc(-c2cc(C(=O)NCCCCCCC(=O)NO)no2)cc1
How it was run: as §1

[7] = compound: CCCS(=O)(=O)Nc1ccc(F)c(C(=O)c2c[nH]c3ncc(-c4ccc(Cl)cc4)cc23)c1F [Vemurafenib]
How it was run: as §1

[8] = compound: CCOc1cc(C(=O)N2CCC(N3CCN(C)CC3)CC2)ccc1Nc1ncc2c(n1)N(C1CCCC1)c1ccccc1C(=O)N2C [ERK5-IN-1]
How it was run: as §1

[9] = compound: CC[C@@H]1C(=O)N(C)c2cnc(Nc3ccc(C(=O)N[C@H]4CC[C@H](N5CCN(CC6CC6)CC5)CC4)cc3OC)nc2N1C(C)C [BI6727]
How it was run: as §1

[10] = compound: CC[C@]1(O)C[C@H]2CN(CCc3c([nH]c4ccccc34)[C@@](C(=O)OC)(c3cc4c(cc3OC)N(C=O)[C@H]3[C@@](O)(C(=O)OC)[C@H](OC(C)=O)[C@]5(CC)C=CCN6CC[C@]43[C@@H]65)C2)C1 [Vincristine]
How it was run: as §1

[11] = compound: COC1=CC(c2cc3ccccc3[nH]2)=N/C1=C\c1[nH]c(C)cc1C [Obatoclax mesylate]
How it was run: as §1

[12] = compound: COc1c(Cl)cc2c([nH]c3cnccc32)c1NC(=O)c1cccnc1C [MLN-120B]
How it was run: as §1

[13] = compound: Cc1[nH]c2ccccc2c1CCNCc1ccc(/C=C/C(=O)NO)cc1 [Panobinostat]
How it was run: as §1

[14] = compound: NC(=O)Nc1cc(-c2cccc(F)c2)sc1C(=O)N[C@H]1CCCNC1 [AZD7762]
How it was run: as §1

[15] = compound: Nc1nc(Cl)nc2c1ncn2[C@H]1C[C@H](O)[C@@H](CO)O1 [Cladribine]
How it was run: as §1

[16] = compound: O=C(CCCCCCC(=O)Nc1ccccc1)NO [Vorinostat]
How it was run: as §1

[17] = compound: O=C(NCC1(c2nc(-c3ccccc3)cs2)CCOCC1)c1cccc(-c2noc(C(F)(F)F)n2)c1 [TMP269]
How it was run: as §1

[18] = compound: OC[C@H]1O[C@@H](n2cnc3c2N=CNC[C@H]3O)C[C@@H]1O [Pentostatin]
How it was run: as §1

What does the source list for primary AML patient cells (S027)?
viability ([1]; 0.0016 µM): 0.958; viability ([1]; 0.008 µM): 1.06; viability ([1]; 0.04 µM): 0.945; viability ([1]; 0.2 µM): 0.943; viability ([1]; 1 µM): 1.01; viability ([2]; 0.024 µM): 1.02; viability ([2]; 0.12 µM): 1.03; viability ([2]; 0.6 µM): 1.03; viability ([2]; 3 µM): 0.938; viability ([2]; 15 µM): 0.832; viability ([3]; 0.024 µM): 1.01; viability ([3]; 0.12 µM): 0.906; viability ([3]; 0.6 µM): 0.93; viability ([3]; 3 µM): 0.881; viability ([4]; 0.016 µM): 1.17; viability ([4]; 0.08 µM): 1.17; viability ([4]; 0.4 µM): 1.18; viability ([4]; 10 µM): 1.05

Which results are given for primary DLBCL patient cells (S049)?
viability ([5]; 0.024 µM): 1.02; viability ([5]; 0.12 µM): 0.803; viability ([5]; 0.6 µM): 0.897; viability ([5]; 3 µM): 0.899; viability ([5]; 15 µM): 0.928; viability ([1]; 0.0016 µM): 0.823; viability ([1]; 0.008 µM): 0.761; viability ([1]; 0.04 µM): 0.687; viability ([1]; 0.2 µM): 0.716; viability ([1]; 1 µM): 0.649; viability ([6]; 0.024 µM): 0.925; viability ([6]; 0.12 µM): 0.678; viability ([6]; 0.6 µM): 0.327; viability ([6]; 3 µM): 0.0379; viability ([6]; 15 µM): 0.0222; viability ([7]; 0.024 µM): 0.847; viability ([7]; 0.12 µM): 0.935; viability ([7]; 0.6 µM): 0.934; viability ([7]; 3 µM): 0.957; viability ([7]; 15 µM): 0.911; viability ([8]; 0.024 µM): 1.04; viability ([8]; 0.12 µM): 1.04; viability ([8]; 0.6 µM): 0.717; viability ([8]; 3 µM): 0.177; viability ([8]; 15 µM): 0.045; viability ([9]; 0.024 µM): 0.902; viability ([9]; 0.12 µM): 0.898; viability ([9]; 0.6 µM): 0.711; viability ([9]; 3 µM): 0.228; viability ([9]; 15 µM): 0.0414; viability ([10]; 0.016 µM): 0.123; viability ([10]; 0.08 µM): 0.101; viability ([10]; 0.4 µM): 0.104; viability ([10]; 2 µM): 0.132; viability ([10]; 10 µM): 0.121; viability ([2]; 0.024 µM): 1; viability ([2]; 0.12 µM): 1.02; viability ([2]; 0.6 µM): 0.976; viability ([2]; 3 µM): 0.752; viability ([2]; 15 µM): 0.29; viability ([11]; 0.024 µM): 0.827; viability ([11]; 0.12 µM): 0.773; viability ([11]; 0.6 µM): 0.538; viability ([11]; 3 µM): 0.343; viability ([11]; 15 µM): 0.0387; viability ([12]; 0.024 µM): 0.954; viability ([12]; 0.12 µM): 0.902; viability ([12]; 0.6 µM): 0.946; viability ([12]; 3 µM): 0.868; viability ([12]; 15 µM): 0.741; viability ([13]; 0.00064 µM): 1.09; viability ([13]; 0.0032 µM): 0.896; viability ([13]; 0.016 µM): 0.0566; viability ([13]; 0.08 µM): 0.0257; viability ([13]; 0.4 µM): 0.0265; viability ([14]; 0.024 µM): 0.697; viability ([14]; 0.12 µM): 0.337; viability ([14]; 0.6 µM): 0.277; viability ([14]; 3 µM): 0.344; viability ([14]; 15 µM): 0.163; viability ([15]; 0.024 µM): 0.918; viability ([15]; 0.12 µM): 0.853; viability ([15]; 0.6 µM): 0.512; viability ([15]; 3 µM): 0.399; viability ([15]; 15 µM): 0.305; viability ([16]; 0.016 µM): 0.996; viability ([16]; 0.08 µM): 0.899; viability ([16]; 0.4 µM): 0.797; viability ([16]; 2 µM): 0.0724; viability ([16]; 10 µM): 0.0247; viability ([17]; 0.024 µM): 1.03; viability ([17]; 0.12 µM): 1.08; viability ([17]; 0.6 µM): 1.1; viability ([17]; 3 µM): 1.01; viability ([17]; 15 µM): 0.961; viability ([18]; 0.03 µM): 1.09; viability ([18]; 0.15 µM): 0.953; viability ([18]; 0.75 µM): 1.02; viability ([18]; 3.75 µM): 0.907; viability ([18]; 18.76 µM): 0.839
